One assay relates to DoHH2 cells. Briefly: Anti-proliferation assay (Cell Titer-Glo) in DoHH2 follicular lymphoma cells. The conditions noted are these: 96 total hours of culture, read-out: IC50 in DoHH2 (inhibition of cell growth). Type of assay: cell-based, human. As for the experimental part: (§1) To determine the antiproliferative activity of sodium trans-[tetrachlorobis(1H-indazole)ruthenate(III)] in human lymphoma tumor cell lines, anti-proliferation assays were conducted in the DoHH2 (follicular lymphoma), Granta 519 (mantle cell lymphoma), and WSU-DLCL2 (diffuse large B cell lymphoma) cell lines. The DoHH2 Human EBV-negative B Cell Lymphoma cells were seeded with 5,000 cells/well and grown in RPMI1640 medium containing 20% FBS, and 2mM L-Glutamine. The Granta 519 Human Mantle Cell Lymphoma cells were seeded with 10,000 cells/well and grown in DMEM medium containing 10% FBS, and 2 mM L-Glutamine. The WSU-DLCL2 Human B Cell Lymphoma cells were seeded with 5,000 cells/well and grown in RPMI1640 medium containing 10% FBS, and 2mM L-Glutamine. Specifically, the human tumor cells were placed in a 96-well microculture plate at the appropriate density for 96 hours of total growth time. After 24 hours of incubation in a humidified incubator at 37° C. with 5% CO2 and 95% air, serially diluted test agents in growth medium were added to each well. After 96 total hours of culture in a CO2 incubator, the plates were processed with Cell Titer-Glo (Promega #G7571) according to manufacturer's instructions. Luminescence was detected using a Tecan GENios microplate reader. Percent inhibition of cell growth was calculated relative to untreated control wells. […]

In assay [1] the test system is MV4-11 cells. Briefly: Anti-proliferation assay (Cell Titer-Glo) in MV4-11 human leukemia cells. Type of assay: cell-based. As for the experimental part:
The human leukemia cell line MV4-11 cells [biphenotypic B myelomonocytic leukemia, lymphoblast morphology] were placed in a 96-well microculture plate (Costar white, flat bottom #3917) in a total volume of 90 μL/well. After 24 hours of incubation in a humidified incubator at 37° C. with 5% CO2 and 95% air, 10 μL of 10X, serially diluted sodium trans-[tetrachlorobis(1H-indazole)ruthenate(III)] in growth medium was added to each well. After 96 total hours of culture in a CO2 incubator, the plated cells and Cell Titer-Glo (Promega #G7571) reagents were brought to room temperature to equilibrate for 30 minutes. 100 μL of Cell Titer-Glo® reagent was added to each well. The plate was shaken for 2 minutes and then left to equilibrate for 10 minutes before reading luminescence on the Tecan GENios microplate reader. Percent inhibition of cell growth was calculated relative to untreated control wells. All tests were performed in duplicate at each concentration level. The IC50 value for the test agent was estimated using Prism 3.03 by curve-fitting the data using the following four parameter-logistic equation: […]
For orientation: ATP-based viability assays read luminescence as a measure of living cells.

In assay [2] the test system is WSU-DLCL2 cells. As to the kind of experiment: Anti-proliferation assay (Cell Titer-Glo) in WSU-DLCL2 diffuse large B cell lymphoma cells. Format: cell-based, human. The conditions noted are these: 96 total hours of culture, read-out: IC50 in WSU-DLCL2 (inhibition of cell growth). As for the experimental part: as §1
Another assay relates to Granta 519 cells. As to the kind of experiment: Anti-proliferation assay (Cell Titer-Glo) in Granta 519 mantle cell lymphoma cells. Type of assay: cell-based, human. The conditions noted are these: 96 total hours of culture, read-out: IC50 in Granta 519 (inhibition of cell growth). As for the experimental part:
as §1

The subject of assay [3] is WSU-DLCL2 cells. The conditions noted are these: Aref et al. 1999, Levi et al. 2010; cited from earlier work.
The subject of assay [4] is MV4-11 cells. The conditions noted are these: Colado et al. 2008, Scatena et al. 2010; cited from earlier work.

These results are taken from patent publication US20130253202A1, “METHOD OF TREATING HEMATOLOGICAL CANCERS” (Niiki Pharma Inc., priority 2010, published 2013).

What is called IC50 is the midpoint of a concentration-inhibition curve. With `[Cl][Ru-]([Cl])([Cl])[Cl].[Na+].c1ccc2[nH]ncc2c1.c1ccc2[nH]ncc2c1` [sodium trans-[tetrachlorobis(1H-indazole)ruthenate(III)]], the 50% inhibitory concentration (IC50) with DoHH2 cells was found to be 7.18 µM; with MV4-11 cells [1] (96 total hours of culture, compound added after 24 hours, Cell Titer-Glo, read-out: IC50 on MV4-11 (inhibition of cell growth)) it was 8.53 µM; in the assay with WSU-DLCL2 cells [2], 25 µM; in the assay on Granta 519 cells, 63.6 µM. Besides, the “inhibition of proliferation of MV4-11 cells (FIG. 1), dose-dependent maximum” value in the assay on MV4-11 cells [1] (exposure time 24 hours, % of control) was “up to 100%”.
For `N[C@@H](Cc1ccc(N(CCCl)CCCl)cc1)C(=O)O` [melphalan], the “resistance of WSU-DLCL2 cells to the drug” value with WSU-DLCL2 cells [3] is on record as “resistant”.
For the molecule `Nc1ccn([C@@H]2O[C@H](CO)[C@@H](O)[C@@H]2O)c(=O)n1` [Ara-C, cytarabine], the “resistance of MV4-11 cells to the drug” value in the assay with MV4-11 cells [4] is reported as “resistant”.
In the case of `COc1cccc2c1C(=O)c1c(O)c3c(c(O)c1C2=O)C[C@@](O)(C(=O)CO)C[C@@H]3O[C@H]1C[C@H](N)[C@H](O)[C@H](C)O1` [doxorubicin], the “resistance of MV4-11 cells to the drug” value in the assay on MV4-11 cells [4] is given as “resistant”. Further, in the assay with WSU-DLCL2 cells [3], the “resistance of WSU-DLCL2 cells to the drug” value is recorded as “resistant”.
